# Where two headings read alike, the source gives them in different places.
# What was measured:
# ruminants = conditions: in words; U.S. Pat. No. 3,794,732; cited from earlier work
# [1] = tested on: rumen microorganisms (mixed microbial population of rumen contents); test: Enhancement of intraruminal propionic acid production, batch culture fermentation of rumen contents; assay type: cell-based, bovine (rumen-fistulated); conditions: for % Propionic Acid: 9 h, 39° C.
# Protocol: Enhancement of intraruminal propionic acid production is determined using a batch culture fermentation system. Rumen contents from a rumen-fistulated bovine are mixed with an equal amount of buffer which contains mineral, energy and nitrogen sources required for continued growth and metabolism of the mixed microbial population. Aliquots of this inoculum then are transferred to incubation vessels containing appropriate amounts of sodium laidlomycin (Na L.) (see Example 1A), and L. butyrate (L.C4) (prepared according to the procedure of Example 1A). After 9 hours of incubation at 39° C., concentrations of individual volatile fatty acids in each incubation vessel are determined by gas-liquid chromatography. The net production of each individual volatile fatty acid (acetic [AA], propionic [PA] and butyric [BA]) is calculated as the difference between the concentration after incubation and the concentration before incubation. The molar percentage of propionic acid produced is calculated from the following equation: [formula]
# The comparative activities of sodium laidlomycin (Na L.) and the laidlomycin butyrate upon propionic acid and lactic acid production are set forth in Tables 1 and 2 where the concentration is in micrograms per ml (μg/ml).
# (§1) The procedure of Example 2 was followed to compare laidlomycin (L.), sodium L. (Na L.), L.-propionate (L.C3), L. butyrate (L.C4), L. isobutyrate (L. isoC4), L. pentanoate (L.C5) and L. hexanoate (L.C6).
# (§2) The procedure of Example 2 was followed to compare the activities of L. heptanoate (L. C7), L. octanoate (L. C8), L. decanoate (L. C10) and L. dodecanoate (L. C12) in increasing propionic acid production and inhibiting lactic acid production.
# (§3) The procedure of Example 2 was followed to compare the activities of laidlomycin (L.) acetate (L. C2), L. pentanoate (L. C5), L. stearate (L. C18), L. cyclobutylcarboxylate, L. cyclopentylcarboxylate, L. cyclohexylcarboxylate and L. cyclopropylcarboxylate.
# [2] = tested on: rumen contents (lactic acid accumulation); test: Inhibition of lactic acid accumulation, second batch culture fermentation of rumen contents with glucose; assay type: cell-based, bovine (rumen fistulated); conditions: for activity at 1.25 µg/mL: 1.25 μg/ml; for activity at 0.31 µg/mL: .31 μg/ml; for Accumulation of Lactic Acid - % of Control: 360 min
# Protocol: Inhibition of lactic acid accumulation is determined using a second batch culture fermentation system. Rumen contents from a rumen fistulated bovine are mixed with an equal amount of buffer which contains a 150 mM concentration of glucose. Following 6 hours of incubation at 39° C., lactic acid produced in the fermentation is analyzed by a specific enzymatic assay. The concentration of lactic acid in the fermentation broth is quantified by the increase in absorbance of light at […] when nicotinamide adenine dinucleotide is reduced by lactic acid with the aid of lactate dehydrogenase. […]
# as §1, §2, §3
# [3] = Acute oral toxicity (mortality, LD50) in mice; assay type: in vivo, mouse (Swiss-Webster); conditions: mouse, in vivo, male Swiss-Webster mice, 21 days
# Protocol: (§4) Five groups of male, Swiss-Webster mice (Simonsen), each mouse weighing about 25 grams, were dosed orally with 0.25 ml of a solution of laidlomycin butyrate in sesame oil. A control group of six mice received only sesame oil. The mice were observed daily for mortality for 21 days. From this information the LD50 as calculated to be more than 200 mg/kg.
# male, Swiss-Webster mice = test: Acute oral toxicity (mortality, LD50) in mice; assay type: in vivo, mouse (Swiss-Webster); conditions: sesame oil, 21 days
# Protocol: as §4
# Gram-positive bacteria = conditions: in words; J. Antibiotics 1974, 1976; cited from earlier work
# [4] = Table 3, 1.25 μg/ml, 0 μg/ml: 28.5
# [5] = Table 3, 5 μg/ml, 0 μg/ml: 28.5
# [6] = Table 3, 20 μg/ml, 0 μg/ml: 28.5
# [7] = Table 3, .31 μg/ml, 0 μg/ml: 28.5
# [8] = in words, compared with laidlomycin or its sodium salt
# [9] = Bos taurus, 6 h, read-out: Accumulation of Lactic Acid - % of Control, Table 4, 6 h, 39° C.
# [10] = Bos taurus, 6 h, read-out: Lactic Acid Accumulation (% of Control), Table 2, 6 h, 39° C.
# [11] = Bos taurus, Table 4, 6 h, 39° C., read-out: Accumulation of Lactic Acid - % of Control
compound,measurement,setting,value
monensin,increasing feed utilization in ruminants,ruminants,useful in increasing feed utilization in ruminants
"CCCC(=O)OCC1(O)OC(C2CC(C)C(C3(C)CCC(C4(C)CCC5(CC(O)C(C)C(C(C)C(OC(=O)CC)C(C)C(=O)O)O5)O4)O3)O2)C(C)CC1C (stereo not shown) [L. C4, monobutyrate of laidlomycin]",% Propionic Acid,"[1]; Table 1, 1.25 μg/ml, 0 μg/ml: 35.4",46.1%
same,% Propionic Acid,"[1]; Table 1, 2.5 μg/ml, 0 μg/ml: 35.4",52.2%
same,% Propionic Acid,"[1]; Table 1, 5 μg/ml, 0 μg/ml: 35.4",49.3%
same,% Propionic Acid,"[1]; Table 1, 10 μg/ml, 0 μg/ml: 35.4",53.9%
same,% Propionic Acid,"[1]; Table 1, .31 μg/ml, 0 μg/ml: 35.4",43.6%
same,% Propionic Acid,"[1]; Table 1, .62 μg/ml, 0 μg/ml: 35.4",46.4%
same,% Propionic Acid,[1]; [4],39.9%
same,% Propionic Acid,[1]; [5],43.7%
same,% Propionic Acid,[1]; [6],46.9%
same,% Propionic Acid,[1]; [7],35.5%
same,enhancement of propionic acid production (molar percentage of propionate),[1]; [8],surprisingly increased potency
same,activity at 1.25 µg/mL,[2]; [9],13%
same,activity at 5 µg/mL,"[2]; Bos taurus, 6 h, read-out: Accumulation of Lactic Acid - % of Control, Table 4, 5 μg/ml, 6 h, 39° C.",15%
same,activity at 20 µg/mL,"[2]; Bos taurus, 6 h, read-out: Accumulation of Lactic Acid - % of Control, Table 4, 20 μg/ml, 6 h, 39° C.",19%
same,activity at 0.31 µg/mL,[2]; [9],38%
same,activity at 1.25 µg/mL,[2]; [10],8%
same,activity at 2.5 µg/mL,"[2]; Bos taurus, 6 h, read-out: Lactic Acid Accumulation (% of Control), Table 2, 2.5 μg/ml, 6 h, 39° C.",11%
same,activity at 5 µg/mL,"[2]; Bos taurus, 6 h, read-out: Lactic Acid Accumulation (% of Control), Table 2, 5 μg/ml, 6 h, 39° C.",13%
same,activity at 10 µg/mL,"[2]; Bos taurus, 6 h, read-out: Lactic Acid Accumulation (% of Control), Table 2, 10 μg/ml, 6 h, 39° C.",13%
same,activity at 0.31 µg/mL,[2]; [10],71%
same,activity at 0.62 µg/mL,"[2]; Bos taurus, 6 h, read-out: Lactic Acid Accumulation (% of Control), Table 2, .62 μg/ml, 6 h, 39° C.",30%
same,inhibition of lactic acid production/accumulation,[2]; [8],surprisingly increased potency
same,LD50 at 504 h,[3],> 200 mg/kg
same,No. Deaths/No. Mice,"male, Swiss-Webster mice; 12.5 mg/kg",0/6
same,No. Deaths/No. Mice,"male, Swiss-Webster mice; 25 mg/kg",0/6
same,No. Deaths/No. Mice,"male, Swiss-Webster mice; 50 mg/kg",0/6
same,No. Deaths/No. Mice,"male, Swiss-Webster mice; 100 mg/kg",0/6
same,No. Deaths/No. Mice,"male, Swiss-Webster mice; 200 mg/kg",0/6
"CCC(=O)OC(C(C)C(=O)O)C(C)C1OC2(CCC(C)(C3CCC(C)(C4OC(C5OC(O)(CO)C(C)CC5C)CC4C)O3)O2)CC(O)C1C (stereo not shown) [L., laidlomycin]",% Propionic Acid,[1]; [4],36.0%
same,% Propionic Acid,[1]; [5],39.8%
same,% Propionic Acid,[1]; [6],43.2%
same,% Propionic Acid,[1]; [7],32.1%
same,activity at 1.25 µg/mL,[2]; [9],83%
same,activity at 0.31 µg/mL,[2]; [9],121%
same,Accumulation of Lactic Acid - % of Control,"[2]; Table 4, 5 μg/ml, 6 h, 39° C.",20 % of Control
same,Accumulation of Lactic Acid - % of Control,"[2]; Table 4, 20 μg/ml, 6 h, 39° C.",16 % of Control
same,growth inhibition of Gram-positive bacteria,Gram-positive bacteria,inhibits the growth of some Gram-positive bacteria
"CCC(=O)OCC1(O)OC(C2CC(C)C(C3(C)CCC(C4(C)CCC5(CC(O)C(C)C(C(C)C(OC(=O)CC)C(C)C(=O)O)O5)O4)O3)O2)C(C)CC1C (stereo not shown) [L. C3, laidlomycin propionate]",% Propionic Acid,[1]; [4],37.8%
same,% Propionic Acid,[1]; [5],41.9%
same,% Propionic Acid,[1]; [6],44.4%
same,% Propionic Acid,[1]; [7],32.9%
same,activity at 1.25 µg/mL,[2]; [11],14%
same,activity at 5 µg/mL,"[2]; Bos taurus, Table 4, 5 μg/ml, 6 h, 39° C., read-out: Accumulation of Lactic Acid - % of Control",13%
same,activity at 20 µg/mL,"[2]; Bos taurus, Table 4, 20 μg/ml, 6 h, 39° C., read-out: Accumulation of Lactic Acid - % of Control",14%
same,activity at 0.31 µg/mL,[2]; [11],71%
